Targets include ERBB4 (Homo sapiens, UniProt Q15303); GRK1 (Homo sapiens, UniProt Q15835); LRRK2 (Homo sapiens, UniProt Q5S007); MUSK (Homo sapiens, UniProt O15146); MET(M1250T) (Homo sapiens, UniProt P08581, M1250T); ACVR2A (Homo sapiens, UniProt P27037); PHKG2 (Homo sapiens, UniProt P15735); PIM3 (Homo sapiens, UniProt Q86V86); FLT3(D835H) (Homo sapiens, UniProt P36888, D835H); LATS2 (Homo sapiens, UniProt Q9NRM7); KIT(V559D,V654A) (Homo sapiens, UniProt P10721, V559D/V654A); PIK3CD (Homo sapiens, UniProt O00329); PLK1 (Homo sapiens, UniProt P53350); PKN2 (Homo sapiens, UniProt Q16513); BRSK1 (Homo sapiens, UniProt Q8TDC3); SIK2 (Homo sapiens, UniProt Q9H0K1).

Common to all, as to assay: biochemical
Holding throughout (set-up): KINOMEscan active-site-directed competition binding panel, 468 kinases, percent of DMSO control at 1 uM
Holding throughout (settings): KINOMEscan binding, percent of DMSO control; read-out: Ctrl%

In the next test the target is T1, VPS34 (Homo sapiens, UniProt Q8NEB9).
T1 construct: gene PIK3C3

For another test, the target named is T2, ABL1-phosphorylated (Homo sapiens, UniProt P00519).
T2 construct: phosphorylated
T2 sequence (P00519 whole entry): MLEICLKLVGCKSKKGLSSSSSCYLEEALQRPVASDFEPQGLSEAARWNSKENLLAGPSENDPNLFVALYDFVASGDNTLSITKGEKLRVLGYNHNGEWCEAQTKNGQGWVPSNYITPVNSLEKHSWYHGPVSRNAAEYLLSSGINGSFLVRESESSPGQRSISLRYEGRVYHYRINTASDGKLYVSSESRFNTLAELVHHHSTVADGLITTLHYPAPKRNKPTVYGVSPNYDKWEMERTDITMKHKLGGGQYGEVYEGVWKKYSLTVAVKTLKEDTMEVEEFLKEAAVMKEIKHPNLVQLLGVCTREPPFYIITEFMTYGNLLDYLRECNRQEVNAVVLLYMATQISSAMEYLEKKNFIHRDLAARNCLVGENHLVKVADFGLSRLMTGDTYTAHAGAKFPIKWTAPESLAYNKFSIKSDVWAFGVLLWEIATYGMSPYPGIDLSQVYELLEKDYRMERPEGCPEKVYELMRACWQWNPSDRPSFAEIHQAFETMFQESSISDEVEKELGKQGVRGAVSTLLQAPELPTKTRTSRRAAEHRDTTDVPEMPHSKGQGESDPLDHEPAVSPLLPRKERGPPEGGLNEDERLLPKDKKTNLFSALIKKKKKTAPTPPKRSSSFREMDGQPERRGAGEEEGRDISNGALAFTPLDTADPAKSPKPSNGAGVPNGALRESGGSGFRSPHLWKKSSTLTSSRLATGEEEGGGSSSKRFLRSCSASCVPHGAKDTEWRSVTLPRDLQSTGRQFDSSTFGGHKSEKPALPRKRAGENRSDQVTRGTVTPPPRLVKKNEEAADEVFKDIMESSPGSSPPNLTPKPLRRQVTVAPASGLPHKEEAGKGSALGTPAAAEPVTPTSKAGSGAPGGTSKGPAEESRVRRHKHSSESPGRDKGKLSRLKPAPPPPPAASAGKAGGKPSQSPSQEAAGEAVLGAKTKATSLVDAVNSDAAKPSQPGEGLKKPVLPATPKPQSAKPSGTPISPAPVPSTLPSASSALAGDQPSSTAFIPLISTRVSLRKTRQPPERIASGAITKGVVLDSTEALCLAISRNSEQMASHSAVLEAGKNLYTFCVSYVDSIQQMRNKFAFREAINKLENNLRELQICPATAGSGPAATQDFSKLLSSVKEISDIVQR

Another test addresses T3, MLK2 (Homo sapiens, UniProt Q02779).
T3 construct: gene MAP3K10

The target in the next test is T4, JNK3 (Homo sapiens, UniProt P53779).
T4 construct: gene MAPK10

For a further test, the target named is T5, YANK2 (Homo sapiens, UniProt Q9NY57).
T5 construct: gene STK32B

In a further test the target is T6, MLCK (Homo sapiens, UniProt Q32MK0).
T6 construct: gene MYLK3

The next test addresses T7, PYK2 (Homo sapiens, UniProt Q14289).
T7 construct: gene PTK2B

The target in test [1] is T8, TYK2(JH1domain-catalytic) (Homo sapiens, UniProt P29597).
T8 construct: JH1domain-catalytic

Chain of LRRK2 (Q5S007 whole entry): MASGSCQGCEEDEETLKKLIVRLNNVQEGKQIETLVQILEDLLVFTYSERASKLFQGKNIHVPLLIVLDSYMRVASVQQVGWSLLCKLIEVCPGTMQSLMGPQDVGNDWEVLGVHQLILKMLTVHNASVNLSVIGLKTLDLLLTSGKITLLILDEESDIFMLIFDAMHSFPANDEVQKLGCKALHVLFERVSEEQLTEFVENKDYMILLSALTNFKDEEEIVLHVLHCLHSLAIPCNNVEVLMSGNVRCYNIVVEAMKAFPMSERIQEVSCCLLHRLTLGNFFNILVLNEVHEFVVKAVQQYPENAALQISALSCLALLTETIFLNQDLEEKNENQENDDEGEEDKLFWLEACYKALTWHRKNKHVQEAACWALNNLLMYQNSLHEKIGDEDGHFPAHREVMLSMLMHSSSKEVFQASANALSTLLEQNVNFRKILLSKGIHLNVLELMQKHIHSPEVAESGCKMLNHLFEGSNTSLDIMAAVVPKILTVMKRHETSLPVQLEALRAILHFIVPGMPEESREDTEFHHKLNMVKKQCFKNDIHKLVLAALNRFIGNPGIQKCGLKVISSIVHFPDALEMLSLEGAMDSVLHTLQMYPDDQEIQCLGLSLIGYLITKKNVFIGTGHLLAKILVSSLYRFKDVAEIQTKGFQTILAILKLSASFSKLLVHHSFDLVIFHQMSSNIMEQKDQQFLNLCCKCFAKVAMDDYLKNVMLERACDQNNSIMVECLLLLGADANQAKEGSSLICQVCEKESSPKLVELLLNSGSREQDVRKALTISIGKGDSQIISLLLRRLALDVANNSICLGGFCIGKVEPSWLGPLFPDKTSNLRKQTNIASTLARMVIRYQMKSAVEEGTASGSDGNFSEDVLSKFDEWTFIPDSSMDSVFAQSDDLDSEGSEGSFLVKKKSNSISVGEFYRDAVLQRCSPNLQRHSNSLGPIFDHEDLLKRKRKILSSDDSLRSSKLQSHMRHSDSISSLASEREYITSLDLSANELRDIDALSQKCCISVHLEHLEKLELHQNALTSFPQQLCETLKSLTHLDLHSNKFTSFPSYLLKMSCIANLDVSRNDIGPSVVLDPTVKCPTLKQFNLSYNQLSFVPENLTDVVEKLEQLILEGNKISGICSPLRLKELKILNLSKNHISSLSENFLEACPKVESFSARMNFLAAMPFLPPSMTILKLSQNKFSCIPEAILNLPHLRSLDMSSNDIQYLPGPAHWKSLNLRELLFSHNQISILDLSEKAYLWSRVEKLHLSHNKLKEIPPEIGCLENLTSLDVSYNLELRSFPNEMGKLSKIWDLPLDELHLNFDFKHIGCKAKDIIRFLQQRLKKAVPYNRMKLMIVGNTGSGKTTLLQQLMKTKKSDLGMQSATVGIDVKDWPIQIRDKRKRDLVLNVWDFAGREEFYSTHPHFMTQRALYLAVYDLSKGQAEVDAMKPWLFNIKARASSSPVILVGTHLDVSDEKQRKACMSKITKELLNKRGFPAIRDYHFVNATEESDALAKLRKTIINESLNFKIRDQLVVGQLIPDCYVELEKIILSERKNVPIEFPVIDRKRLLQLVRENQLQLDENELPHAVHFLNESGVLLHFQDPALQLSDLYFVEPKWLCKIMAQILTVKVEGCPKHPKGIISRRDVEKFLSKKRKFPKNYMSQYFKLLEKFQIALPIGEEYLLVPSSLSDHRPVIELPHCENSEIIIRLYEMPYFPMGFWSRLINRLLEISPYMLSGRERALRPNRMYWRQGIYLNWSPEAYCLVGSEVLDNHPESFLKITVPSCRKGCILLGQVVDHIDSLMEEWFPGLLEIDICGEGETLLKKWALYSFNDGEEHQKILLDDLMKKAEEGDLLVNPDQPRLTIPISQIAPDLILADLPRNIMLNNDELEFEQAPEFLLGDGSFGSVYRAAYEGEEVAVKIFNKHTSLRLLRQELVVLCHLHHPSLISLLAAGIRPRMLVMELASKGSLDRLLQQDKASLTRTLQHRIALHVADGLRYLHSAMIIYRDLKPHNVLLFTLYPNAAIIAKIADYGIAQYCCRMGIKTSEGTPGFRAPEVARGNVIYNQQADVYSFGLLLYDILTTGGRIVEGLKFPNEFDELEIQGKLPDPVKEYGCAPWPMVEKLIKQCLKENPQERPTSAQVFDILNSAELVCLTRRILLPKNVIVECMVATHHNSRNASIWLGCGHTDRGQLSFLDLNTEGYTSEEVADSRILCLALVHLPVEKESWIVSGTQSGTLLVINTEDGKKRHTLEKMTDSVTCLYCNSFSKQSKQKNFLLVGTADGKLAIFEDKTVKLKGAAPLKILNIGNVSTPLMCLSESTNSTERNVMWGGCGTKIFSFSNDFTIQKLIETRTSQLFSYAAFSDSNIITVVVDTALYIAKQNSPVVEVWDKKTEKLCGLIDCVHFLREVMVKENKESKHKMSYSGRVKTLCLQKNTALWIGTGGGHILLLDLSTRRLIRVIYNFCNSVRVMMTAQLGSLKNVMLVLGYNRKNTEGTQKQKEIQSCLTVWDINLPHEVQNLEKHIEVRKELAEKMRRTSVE
Chain of PKN2 (Q16513 whole entry): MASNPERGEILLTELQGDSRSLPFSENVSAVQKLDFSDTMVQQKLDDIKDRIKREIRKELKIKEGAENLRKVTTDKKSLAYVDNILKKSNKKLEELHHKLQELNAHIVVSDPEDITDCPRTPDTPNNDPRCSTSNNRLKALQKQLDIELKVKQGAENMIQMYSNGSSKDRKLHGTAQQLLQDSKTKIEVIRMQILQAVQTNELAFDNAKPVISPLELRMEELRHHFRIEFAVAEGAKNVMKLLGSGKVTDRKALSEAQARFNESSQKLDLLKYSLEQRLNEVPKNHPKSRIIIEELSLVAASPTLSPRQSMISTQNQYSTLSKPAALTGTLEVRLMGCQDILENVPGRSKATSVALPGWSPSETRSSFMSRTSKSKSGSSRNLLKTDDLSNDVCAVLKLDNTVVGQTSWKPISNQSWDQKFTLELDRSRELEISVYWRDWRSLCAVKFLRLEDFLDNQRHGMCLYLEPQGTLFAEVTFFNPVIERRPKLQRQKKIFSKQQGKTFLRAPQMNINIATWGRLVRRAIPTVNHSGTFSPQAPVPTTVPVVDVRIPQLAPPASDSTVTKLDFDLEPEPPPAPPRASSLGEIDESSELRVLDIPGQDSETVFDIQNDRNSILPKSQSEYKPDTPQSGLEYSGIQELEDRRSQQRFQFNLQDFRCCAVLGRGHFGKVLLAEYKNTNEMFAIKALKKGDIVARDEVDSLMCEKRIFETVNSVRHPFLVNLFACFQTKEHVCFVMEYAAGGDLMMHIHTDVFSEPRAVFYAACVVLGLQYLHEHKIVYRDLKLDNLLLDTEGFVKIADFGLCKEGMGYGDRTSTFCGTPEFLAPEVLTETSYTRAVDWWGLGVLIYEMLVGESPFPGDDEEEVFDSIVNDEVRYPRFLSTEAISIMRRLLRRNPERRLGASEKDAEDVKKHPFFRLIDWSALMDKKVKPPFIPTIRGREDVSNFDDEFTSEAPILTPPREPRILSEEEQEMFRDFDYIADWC
Chain of PHKG2 (P15735 whole entry): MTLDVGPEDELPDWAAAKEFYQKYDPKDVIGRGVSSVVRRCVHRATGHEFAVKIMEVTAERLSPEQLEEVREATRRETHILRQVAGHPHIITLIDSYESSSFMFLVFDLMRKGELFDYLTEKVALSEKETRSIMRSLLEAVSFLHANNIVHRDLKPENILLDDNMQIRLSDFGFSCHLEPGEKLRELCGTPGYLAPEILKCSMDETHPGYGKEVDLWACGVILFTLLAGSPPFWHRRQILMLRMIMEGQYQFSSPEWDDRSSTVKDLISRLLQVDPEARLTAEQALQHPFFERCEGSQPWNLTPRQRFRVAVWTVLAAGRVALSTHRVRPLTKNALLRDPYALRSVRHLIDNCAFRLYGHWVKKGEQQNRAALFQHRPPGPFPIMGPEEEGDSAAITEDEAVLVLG

In the case of `Cc1ccc(NC(=O)c2cccc(C(F)(F)F)c2)cc1Nc1cc(-c2cccnc2)nc2[nH]ccc12` [HZX-02-059], the remaining binding at 1 µM on VPS34 was found to be 79%; on ERBB4, 86%; at GRK1 it was 77%; on LRRK2, 100%; at ABL1-phosphorylated, 55%; at MUSK, 100%. Moreover, the remaining binding at 1 µM on MET(M1250T) came to 100%; at MLK2 it was 97%; on ACVR2A it was 75%; at PHKG2 it was 92%; on PIM3, 89%; at JNK3, 96%. Further, the remaining binding at 1 µM on FLT3(D835H) turned out to be 92%; at LATS2 it was 67%; on KIT(V559D,V654A) it was 61%; at YANK2, 100%; at MLCK, 100%; on PIK3CD, 97%. The remaining binding at 1 µM came to 100% at PLK1; 100% at PYK2; 100% on PKN2; 100% in test [1]; 97% at BRSK1; 87% on SIK2.

The values above are taken from publication PMC8799717, “Pharmacological targeting PIKfyve and tubulin as an effective treatment strategy for double-hit lymphoma” (Cell Death Discovery, 2022).
